The data set has as its target P-glycoprotein (P-gp, ABCB1, MDR1) (Homo sapiens, UniProt P08183). Kind of data set: inhibition of […]-IAAP photoaffinity labeling of P-gp in crude membranes. It counts as binding.

Structures are written as SMILES.

Sequence of P-glycoprotein (P-gp, ABCB1, MDR1) (P08183 whole entry): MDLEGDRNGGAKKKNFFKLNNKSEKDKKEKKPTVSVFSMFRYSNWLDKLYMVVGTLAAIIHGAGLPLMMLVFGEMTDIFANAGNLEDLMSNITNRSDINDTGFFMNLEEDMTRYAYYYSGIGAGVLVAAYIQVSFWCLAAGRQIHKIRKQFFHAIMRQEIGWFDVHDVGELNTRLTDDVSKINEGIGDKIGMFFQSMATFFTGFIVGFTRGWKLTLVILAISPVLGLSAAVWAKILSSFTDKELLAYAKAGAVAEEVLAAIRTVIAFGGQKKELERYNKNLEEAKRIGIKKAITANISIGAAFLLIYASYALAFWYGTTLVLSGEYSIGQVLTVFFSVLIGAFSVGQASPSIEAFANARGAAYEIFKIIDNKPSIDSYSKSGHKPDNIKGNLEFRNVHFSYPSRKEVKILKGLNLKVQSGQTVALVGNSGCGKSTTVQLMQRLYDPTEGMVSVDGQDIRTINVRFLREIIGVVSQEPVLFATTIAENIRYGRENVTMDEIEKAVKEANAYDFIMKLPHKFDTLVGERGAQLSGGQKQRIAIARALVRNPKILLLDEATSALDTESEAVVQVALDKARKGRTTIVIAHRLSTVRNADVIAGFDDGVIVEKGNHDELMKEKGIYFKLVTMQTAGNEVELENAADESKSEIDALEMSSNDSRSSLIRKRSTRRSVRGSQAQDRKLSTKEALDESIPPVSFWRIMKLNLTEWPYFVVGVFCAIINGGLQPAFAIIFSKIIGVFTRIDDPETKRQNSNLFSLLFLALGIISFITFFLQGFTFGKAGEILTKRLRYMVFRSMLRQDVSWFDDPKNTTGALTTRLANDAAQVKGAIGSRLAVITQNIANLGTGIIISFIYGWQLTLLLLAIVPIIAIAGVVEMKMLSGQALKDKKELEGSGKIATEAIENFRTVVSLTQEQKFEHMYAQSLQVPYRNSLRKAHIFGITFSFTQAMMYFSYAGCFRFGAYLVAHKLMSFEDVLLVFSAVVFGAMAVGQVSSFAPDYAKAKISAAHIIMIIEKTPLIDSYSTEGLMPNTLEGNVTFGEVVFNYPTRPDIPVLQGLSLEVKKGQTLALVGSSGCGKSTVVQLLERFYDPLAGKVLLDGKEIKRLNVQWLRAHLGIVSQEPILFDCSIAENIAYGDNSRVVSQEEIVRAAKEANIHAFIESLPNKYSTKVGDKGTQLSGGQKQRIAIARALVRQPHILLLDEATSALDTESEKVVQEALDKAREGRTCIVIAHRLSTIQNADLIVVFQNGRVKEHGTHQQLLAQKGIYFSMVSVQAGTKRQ

For `C=C(C)/C=C/C[C@@H](C)[C@H]1CC[C@@]2(C)[C@@H]3[C@@H](O)C=C4[C@@H](CC[C@H](O)C4(C)C)[C@]3(C=O)CC[C@]12C` [kuguacin J], inhibition was half-maximal at 8.3 ± 5.4 µM (IC50).

As usually defined, the IC50 is the concentration that gives 50% inhibition.

Source of the values: article PMC3394403 (2011).
